The values that follow come from patent publication US9718790B2, “Triazine derivative and pharmaceutical composition having an analgesic activity comprising the same” (SHIONOGI & CO., LTD., priority 2010, dated 2017).

One experiment deals with human P2X3 receptor (Homo sapiens (Human), UniProt P56373). As to the kind of experiment: Evaluation of human P2X3 receptor inhibitory activity (Fluo-3 calcium fluorescence, FDSS 3000, ATP stimulation).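 Note: stimulus was 50 nM ATP with fluorescence followed for 3 min, and the response per well was peak post-ATP fluorescence divided by the reading at measurement start.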 The note with it: C6BU-1 cells stably expressing human P2X3 receptor. It counts as cell-based.
human P2X3 receptor, sequence (P56373 whole entry): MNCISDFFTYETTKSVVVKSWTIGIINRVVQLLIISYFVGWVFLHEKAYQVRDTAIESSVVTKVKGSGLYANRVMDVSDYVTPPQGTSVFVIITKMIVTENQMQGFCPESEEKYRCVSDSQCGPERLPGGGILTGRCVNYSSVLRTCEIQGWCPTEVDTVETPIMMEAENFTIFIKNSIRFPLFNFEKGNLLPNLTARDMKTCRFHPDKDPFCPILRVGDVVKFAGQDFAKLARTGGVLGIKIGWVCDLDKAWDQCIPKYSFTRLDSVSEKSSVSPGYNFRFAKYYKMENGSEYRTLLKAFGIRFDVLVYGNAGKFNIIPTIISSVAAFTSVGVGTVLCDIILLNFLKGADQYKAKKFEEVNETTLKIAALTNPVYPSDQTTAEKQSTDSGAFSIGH
What is called IC50 is the concentration at which inhibition is half-maximal. On to `CCn1c(=O)[nH]/c(=N\c2ccc(Oc3cccc4ocnc34)c(Cl)c2)n(Cc2ccc(Cl)cc2)c1=O` [Compound I-2195], for which the IC50 came to 14 nM.

For the compound `CCn1c(=O)[nH]/c(=N\c2ccc(Oc3cncc(C(N)=O)c3)cc2)n(Cc2ccc(Cl)cc2)c1=O` [Compound I-1996], the IC50 was found to be 4 nM.

Take `Cc1ccc(Cn2c(=O)n(C[C@H](C)C(=O)O)c(=O)[nH]/c2=N\c2ccc(Cc3ccncc3)cc2)cc1` [Compound I-1262]: the IC50 stood at 163 nM.

Consider `CCOC(=O)c1cnc(Oc2ccc(/N=c3\[nH]c(=O)n(CC)c(=O)n3Cc3ccc(Cl)cc3)cc2)o1` [Compound I-2187], for which the IC50 came out at 44 nM.

On to `COC(=O)C(C)(C)Cn1c(=O)[nH]/c(=N\c2ccc(OC(C)C)c(CO)c2)n(Cc2ccc(Cl)cc2)c1=O` [Compound I-1423], for which the IC50 is 41 nM.

For `Cc1nc2ccc(/N=c3\[nH]c(=O)n(CCCC(=O)O)c(=O)n3Cc3ccc(Cl)cc3)cc2s1` [Compound I-2143], the concentration for half-maximal inhibition (IC50) was 23 nM.

Take `CCn1c(=O)[nH]/c(=N\c2ccc(Oc3cncc(C(=O)OC)c3)cc2)n(Cc2ccc(Cl)cn2)c1=O` [Compound I-2154]: the IC50 is 133 nM.

`CCCCc1ccc(/N=c2\[nH]c(=O)n(C[C@H](C)C(=O)OC)c(=O)n2Cc2ccc(Cl)cc2)cc1` [Compound I-0620]: the IC50 worked out at 44 nM.

Take `CCn1c(=O)[nH]/c(=N\c2ccc(Oc3cc(C(=O)OC)nc(Cl)n3)cc2)n(Cc2ccc(Cl)cc2)c1=O` [Compound I-2210]: the half-maximal inhibitory concentration (IC50) stood at 14 nM.

Take `COC(=O)[C@@H](C)[C@@H](C)n1c(=O)[nH]/c(=N\c2ccc(CC(C)C)c(Cl)c2)n(Cc2ccc(Cl)cc2)c1=O` [Compound I-1438]: the IC50 amounted to 63 nM.

`CCn1c(=O)[nH]/c(=N\c2ccc(Oc3ccccc3C(=O)OC)cc2)n(Cc2ccc(Cl)cc2)c1=O` [Compound I-1988]: the IC50 turned out to be 391 nM.

Regarding `Cc1nc2ccc(/N=c3\[nH]c(=O)n(C[C@H](O)CO)c(=O)n3CC3CCC(C)CC3)cc2s1` (stereo partly shown) [Compound I-2097], the IC50 stood at 5 nM.

For the compound `Cc1nc2ccc(/N=c3\[nH]c(=O)n(CCO)c(=O)n3CC3CCC(C)CC3)cc2s1` (stereo not shown) [Compound I-2098], the IC50 came to 4 nM.

Turning to `CCc1nc2ccc(/N=c3\[nH]c(=O)n(C[C@H](C)C(=O)OC)c(=O)n3Cc3ccc(Cl)cc3)cc2o1` [Compound I-1326], the IC50 is 217 nM.

Still in this experiment, the particulars now being: C6BU-1 cells stably expressing human P2X3 receptor, Fluo-3 fluorescence, FDSS 3000.
On to `CCc1oc2ccc(/N=c3\[nH]c(=O)n(CC(C)(CO)CO)c(=O)n3Cc3ccc(Cl)cc3)cc2c1C` [Compound I-1644], for which the IC50 turned out to be 5 nM.

Regarding `COC(=O)[C@@H](C)Cn1c(=O)[nH]/c(=N\c2ccc(OC(C)C)c(C#N)c2)n(Cc2ccc(Cl)cc2)c1=O` [Compound I-0953], the IC50 was found to be 42 nM.

Turning to `CC(=O)NCCn1c(=O)[nH]/c(=N\c2ccc(O[C@H](C)C(F)(F)F)cc2)n(Cc2ccc(Cl)cc2)c1=O` [Compound I-1617], the IC50 was determined as 27 nM.

Regarding `COC(=O)[C@H](C)[C@H](C)n1c(=O)[nH]/c(=N\c2ccc(OC(C)C)c(Cl)c2)n(Cc2ccc(C)cc2)c1=O` [Compound I-0928], the IC50 amounted to 14 nM.

Turning to `Cc1nc2ccc(/N=c3\[nH]c(=O)n(CCC4COC(C)(C)OC4)c(=O)n3Cc3ccc(Cl)cc3)cc2s1` [Compound I-1852], the IC50 was determined as 5 nM.

Consider `CC(=O)NCCCn1c(=O)[nH]/c(=N\c2ccc(CC(C)C)c(Cl)c2)n(Cc2ccc(Cl)cc2)c1=O` [Compound I-1614], for which the IC50 turned out to be 9 nM.

For the compound `Cc1ccc(Cn2c(=O)n(C[C@H](C)C(=O)O)c(=O)[nH]/c2=N\c2ccc(C3=CCCC3)cc2)cc1` [Compound I-1114], the IC50 is 214 nM.

`Cc1oc2ccc(/N=c3\[nH]c(=O)n(C[C@H](C)C(=O)O)c(=O)n3Cc3ccc(Cl)cc3)cc2c1C` [Compound I-1653]: the 50% inhibitory concentration (IC50) amounted to 14 nM.

`Cc1ccc(Cn2c(=O)n([C@@H](C)[C@@H](C)C(=O)O)c(=O)[nH]/c2=N\c2ccc(OC(C)C)c(F)c2)cc1` [Compound I-0974]: the IC50 came out at 29 nM.

In the case of `C[C@@H](Cn1c(=O)[nH]/c(=N\c2ccc(Oc3ccccc3)cc2)n(Cc2ccc(Cl)cc2)c1=O)C(=O)O` [Compound I-0991, (S)-1-(4-chlorobenzyl)-3-(2-hydroxycarbonylpropyl)-6-(4-phenoxyphenylimino)-1,3,5-triazinane-2,4-dion], the IC50 stood at 22 nM.

Take `Cc1cc(/N=c2\[nH]c(=O)n(CC3(CC(=O)O)CC3)c(=O)n2Cc2ccc(Cl)cc2)ccc1OC(C)C` [Compound I-0982]: the half-maximal inhibitory concentration (IC50) stood at 17 nM.

With `Cc1ccc(Cn2c(=O)n(CCC(=O)O)c(=O)[nH]/c2=N\c2ncc(-c3ccccc3)s2)cc1` [Compound I-1725], the IC50 is 953 nM.

With `COC(=O)CC1(Cn2c(=O)[nH]/c(=N\c3ccc(OC(C)C)c(C)c3)n(Cc3ccc(C)cc3)c2=O)CC1` [Compound I-0980], the IC50 came to 11 nM.

Consider `COC(=O)[C@@H](C)Cn1c(=O)[nH]/c(=N\c2ccc(OC3CCCC3)nc2)n(Cc2ccc(C)cc2)c1=O` [Compound I-1185], for which the IC50 turned out to be 116 nM.

In the case of `Cc1ccc(Cn2c(=O)n(C[C@H](C)C(N)=O)c(=O)[nH]/c2=N\c2ccc(CC(C)C)c(Cl)c2)cc1` [Compound I-1616], the IC50 came to 7 nM.

Still in this experiment, the particulars now being: human P2X3 receptor, Test Example 1.
Take `CCn1c(=O)[nH]/c(=N\c2ccc(Oc3cnc(C(=O)O)cn3)cc2)n(Cc2ccc(Cl)cc2)c1=O` [Compound I-2296]: the IC50 was 5 nM.

On to `CCn1c(=O)[nH]/c(=N\c2ccc(Oc3cc(C(=O)O)n(C)n3)cc2)n(Cc2ccc(Cl)cc2)c1=O` [Compound I-2491], for which the IC50 stood at 74 nM.

As to `CCCOc1ccc(/N=c2\[nH]c(=O)n(CCCC(=O)O)c(=O)n2Cc2ccc(C)cc2)cc1Cl` [Compound I-0873], the IC50 was 47 nM.

As for `CC(=O)N(C)CCCn1c(=O)[nH]/c(=N\c2ccc(OC(C)C)c(F)c2)n(Cc2ccc(Cl)cc2)c1=O` [Compound I-2317], the IC50 was 3 nM.

Regarding `COC(=O)[C@@H](C)Cn1c(=O)[nH]/c(=N\c2ccc(CC3CC3)c(Cl)c2)n(Cc2ccc(C)cc2)c1=O` [Compound I-1511], the IC50 was 29 nM.

As to `CCOC(=O)C1(Cn2c(=O)[nH]/c(=N\c3ccc4nc(C)sc4c3)n(Cc3ccc(Cl)cc3)c2=O)CC1` [Compound I-1537], the IC50 was 3 nM.

Regarding `N#Cc1cccc(Oc2ccc(/N=c3\[nH]c(=O)n(CCC(=O)O)c(=O)n3Cc3ccc(Cl)cc3)cc2)n1` [Compound I-2667], the IC50 came to 10 nM.

As to `O=c1[nH]/c(=N\c2ccc(Oc3ncccn3)cc2)n(Cc2ccc(Cl)cc2)c(=O)n1C[C@H](O)CO` [Compound I-2418], the IC50 was 12 nM.

In the case of `CCn1c(=O)[nH]/c(=N\c2ccc(Oc3cc(F)cc(C(N)=O)c3)cc2)n(Cc2ccc(Cl)cc2)c1=O` [Compound I-2233], the IC50 amounted to 2 nM.

On to `O=C(O)CCn1c(=O)[nH]/c(=N\c2ccc(Oc3ccc(O)nc3)cc2)n(Cc2ccc(Cl)cc2)c1=O` [Compound I-1535], for which the IC50 is 28 nM.

In the case of `CCn1c(=O)[nH]/c(=N\c2ccc(Oc3cccc(C(=O)OC)n3)cc2)n(Cc2ccc(Cl)cn2)c1=O` [Compound I-2238], the IC50 was 148 nM.

With `CCOc1ccc(/N=c2\[nH]c(=O)n(CCCC(=O)O)c(=O)n2Cc2ccc(C)cc2)cc1Cl` [Compound I-0874], the IC50 came to 86 nM.

`CCCOc1ccc(/N=c2\[nH]c(=O)n(CC(F)(F)C(=O)OCC)c(=O)n2Cc2ccc(C)cc2)cc1` [Compound I-0859]: the IC50 was 17 nM.

For `CCn1c(=O)[nH]/c(=N\c2ccc3nc(N4CCC4)sc3c2)n(Cc2ccc(Cl)cc2)c1=O` [Compound I-2280], the concentration for half-maximal inhibition (IC50) came out at 127 nM.
